Earlier results in patent US20060189608A1, “Methods for treating ocular angiogenesis, retinal edema, retinal ischemia, and diabetic retinopathy using selective RTK inhibitors” (Alcon, Inc., priority 2005, published 2006).

What was measured:
[1] = test system: preretinal and choroidal NV; conditions: oral administration, mice; cited from earlier work
diabetic macular edema = conditions: human patients with diabetic macular edema, cited from earlier work

CO[C@@H]1[C@H](N(C)C(=O)c2ccccc2)C[C@H]2O[C@]1(C)n1c3ccccc3c3c4c(c5c6ccccc6n2c5c31)C(=O)NC4 [PKC-412]
effect on preretinal and choroidal NV [1]: inhibited both preretinal and choroidal NV in mice | macular edema and visual acuity (diabetic macular edema; pilot results): a reduction in macular edema and an improvement in visual acuity | liver toxicity (diabetic macular edema): concerns related to liver toxicity halted the clinical trials
